For orientation: inhibition means the relative decrease from the control value, in per cent.

The source of these data is patent publication US20260374782A1, “NEW COMPOUNDS, PROCESSES FOR PREPARING THE SAME AND THEIR USE AS DRUGS” (B&A ONCOMEDICAL, priority 2022, published 2026).

The test deals with T1, NKCC1 (Homo sapiens, UniProt P55011).
T1 construct: endogenous in cells; host or cells: native HEK293 cells
T1 sequence (P55011 1-1212): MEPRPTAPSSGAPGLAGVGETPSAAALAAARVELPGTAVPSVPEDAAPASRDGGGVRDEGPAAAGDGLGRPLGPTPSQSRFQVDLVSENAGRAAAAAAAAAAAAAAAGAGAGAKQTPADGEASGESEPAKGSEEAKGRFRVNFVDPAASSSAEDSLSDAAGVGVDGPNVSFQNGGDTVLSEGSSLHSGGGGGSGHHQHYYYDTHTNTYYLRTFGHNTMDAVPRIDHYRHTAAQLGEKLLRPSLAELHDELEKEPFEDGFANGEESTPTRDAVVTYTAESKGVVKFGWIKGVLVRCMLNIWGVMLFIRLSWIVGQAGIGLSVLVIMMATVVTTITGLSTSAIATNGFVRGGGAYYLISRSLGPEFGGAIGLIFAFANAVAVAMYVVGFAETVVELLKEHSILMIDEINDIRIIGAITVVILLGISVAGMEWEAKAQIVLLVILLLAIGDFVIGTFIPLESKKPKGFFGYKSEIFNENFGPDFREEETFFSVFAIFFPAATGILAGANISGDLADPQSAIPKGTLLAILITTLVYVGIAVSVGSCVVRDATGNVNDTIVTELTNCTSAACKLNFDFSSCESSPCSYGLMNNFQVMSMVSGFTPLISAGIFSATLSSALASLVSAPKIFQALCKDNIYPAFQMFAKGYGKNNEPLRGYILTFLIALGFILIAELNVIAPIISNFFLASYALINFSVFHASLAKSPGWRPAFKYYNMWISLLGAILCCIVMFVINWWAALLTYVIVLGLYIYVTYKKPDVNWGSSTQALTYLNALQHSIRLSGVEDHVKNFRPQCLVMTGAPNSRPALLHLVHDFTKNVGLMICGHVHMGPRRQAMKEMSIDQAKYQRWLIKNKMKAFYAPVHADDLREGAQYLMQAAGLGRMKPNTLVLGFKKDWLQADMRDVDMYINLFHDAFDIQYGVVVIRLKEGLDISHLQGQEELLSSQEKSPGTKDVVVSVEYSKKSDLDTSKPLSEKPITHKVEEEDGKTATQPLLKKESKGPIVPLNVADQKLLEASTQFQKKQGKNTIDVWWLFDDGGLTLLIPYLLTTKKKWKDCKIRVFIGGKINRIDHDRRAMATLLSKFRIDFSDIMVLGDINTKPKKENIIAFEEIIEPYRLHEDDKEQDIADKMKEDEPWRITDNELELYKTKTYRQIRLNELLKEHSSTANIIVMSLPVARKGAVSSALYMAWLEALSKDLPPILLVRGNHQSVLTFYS
Briefly: NKCC1-mediated K+ influx (83Rb tracer uptake) in native HEK293 cells, hypertonic saline, 100 μM ouabain. It counts as cell-based. Particulars: HEK293, no drug = 1000, 20 μM bumetanide = 0; for inhibition at 20 µM: read-out: NKCC1 mediated flux inhibition at 20 μM (%); for inhibition at 2 µM: read-out: NKCC1 mediated flux inhibition at 2 μM (%). An excerpt:
The compounds of the invention have been tested for evaluating their potency in inhibiting the NKCC1 channel. The test used is a cellular assay expressing the NKCC1 channel: HEK293 cells are human cells derived from embryonic kidney. The inhibitory activity of the compounds has been evaluated in measuring the modification of the potassium flux at 2 concentrations, as described hereafter in the biological protocol.
HEK293 cells are human cells derived from embryonic kidney. They express at their plasma membranes proteins that transport potassium (K^+). Among these proteins is the Na—K-2Cl cotransporter or NKCC1. This transporter contributes to 40-50% of K^+ influx into the cells. The remaining of K^+ transport is mediated by the Na^+/K^+-ATPase (also known as Na^+ pump or Na^+/K^+ pump), which also contributes some 40-50% of the influx basal flux of 5-10%, which is mainly due to K^+ channels (FIG. 1A). Thus, the HEK293 cell in culture is an ideal model to study the function of NKCC1 and test compounds that inhibits its transport.
The assay to measure NKCC1 function was optimized to obtain the next signal to noise ratio: • a. A slightly hypertonic saline was used to stimulate NKCC1 function. […] By consistent use of this simple manipulation, the NKCC1 signal was enhanced. • b. Ouabain, an inhibitor of the Na^+/K^+ pump, was used at 100 μM. […] A radioactive isotope was used to trace the inward movement of K^+ into the cell (influx). This allowed for highly precise measurements of K^+ influx. Because radioactive isotopes of K^+ had very short half-lives, radioactive isotopes of Rb^+ were used. Rubidium was a monovalent cation which was readily transporter at the K^+ binding site by many transporters and channels. Rb^+ was a congener of K^+, being transported undistinguishably from K^+. ^83Rb (half-life of 83 days) was used since ^86Rb (half-life of 19.6 days) is no longer commercially available. The ^83Rb isotope was used as a tracer, i.e. at a very low amounts to trace the movement of K^+.
K^+ influx measured in native HEK293 was in the range of 7000-9000 pmoles K^+ per mg protein per min. In the presence of 20 μM Ref 1, the flux was reduced to 600-900 pmoles K^+ per mg protein per min. Thus, there was a very solid dynamic range. In each experiment, the flux without Ref 1 was set at 1000 (equivalent to 100.0%) and the flux with 20 μM bumetanide was set at 0 (equivalent to 0%).
For the flux experiments, 35-mm culture dishes were coated with 0.1 mg/mL poly-L-lysine and placed in large 20×20 [square] dishes. For convenience, the poly-L-lysine was placed in the dishes the day before the experiment. Before plating the cells, the poly-L-lysine was aspirated, and each dish washed twice with 1 mL sterile water. Cells from 3 confluent 10-cm dishes were detached with trypsin and resuspended into 49 mL complete medium. Cells (2 mL/35-mm dish) were plated in 24 dishes and allowed to attach for at least 2 hours prior to the flux. This setup allowed the measurement of 8 conditions in triplicates. For the flux, culture medium was aspirated and replaced with 1 mL saline for a preincubation period of 15 min. The saline was aspirated and replaced with 1 mL identical saline containing 0.25 μCi/mL 83Rb for 15 min. Following the uptake period, the radioactive solution was aspirated, and the cells washed 3 times with ice-cold saline. Cells were then lyzed with 500 μl 0.25N NaOH for 1 hour, neutralized with 250 μL glacial acetic acid and 300 μL and 30 μL aliquots were used for μ-scintillation counting and protein assays, respectively. Two 5 μL of each flux solution was used to determine cpm and relate those cpm to nmoles K^+. Potassium influx was expressed in nmoles K^+ per mg protein per min. Note that within an experiment, groups of 3 dishes were separated 2 min apart for easy handling. Also note that since all dishes were plated with a homogeneous cell suspension, and all dishes were identical, the protein content was measured from a subset of dishes. […]

On to `CCCCNc1cc(C(=O)OC)cc(S(=N)(=O)N(C)CC)c1Oc1ccccc1` (centres unmarked) [Compound 5, methyl 3-(butylamino)-5-[[ethyl(methyl)amino]sulfonimidoyl]-4-phenoxy-benzoate], for which the inhibition at 20 µM fell in the range of 50 to 75%.

Take `CCCCNc1cc(C(=O)OC)cc(S(=N)(=O)N2CCOCC2)c1Oc1ccccc1` (centres unmarked) [Compound 6, methyl 3-(butylamino)-5-(morpholinosulfonimidoyl)-4-phenoxy-benzoate]: the inhibition at 2 µM lay in the range of 10 to 30% and the inhibition at 20 µM was 30 to 50%.

As for `CCCCNc1cc(C(=O)OC)cc(S(=N)(=O)Nc2ccccc2)c1Oc1ccccc1` (centres unmarked) [Compound 7, methyl 3-(anilinosulfonimidoyl)-5-(butylamino)-4-phenoxy-benzoate], the inhibition at 2 µM lay within 10 to 30% and the inhibition at 20 µM was 50 to 75%.

Regarding `CCCCNc1cc(C(=O)OC)cc(S(=N)(=O)NCc2ccccc2)c1Oc1ccccc1` (centres unmarked) [Compound 8, methyl 3-[(benzylamino)sulfonimidoyl]-5-(butylamino)-4-phenoxy-benzoate], the inhibition at 2 µM lay in the range of 10 to 30% and the inhibition at 20 µM was in the range of 50 to 75%.

On to `CCCCNc1cc(C(=O)OC)cc(S(=N)(=O)NCCOC)c1Oc1ccccc1` (centres unmarked) [Compound 9, methyl 3-(butylamino)-5-[(2-methoxyethylamino)sulfonimidoyl]-4-phenoxy-benzoate], for which the inhibition at 20 µM is 10 to 30%.

With `CCCCNc1cc(C(=O)OC)cc(S(=N)(=O)NC2CC2)c1Oc1ccccc1` (centres unmarked) [Compound 10, methyl 3-(butylamino)-5-[(cyclopropylamino)sulfonimidoyl]-4-phenoxy-benzoate], the inhibition at 20 µM is 10 to 30%.

Take `CCCCNc1cc(C(=O)OC)cc(S(=N)(=O)N2CCCCCC2)c1Oc1ccccc1` (centres unmarked) [Compound 11, methyl 3-(azepan-1-ylsulfonimidoyl)-5-(butylamino)-4-phenoxy-benzoate]: the inhibition at 20 µM lay within 50 to 75%.

Consider `CCCCNc1cc(C(=O)OC)cc(S(=N)(=O)NCC2CCCCC2)c1Oc1ccccc1` (centres unmarked) [Compound 12, methyl 3-(butylamino)-5-[(cyclohexylmethylamino)sulfonimidoyl]-4-phenoxy-benzoate], for which the inhibition at 2 µM was in the range of 10 to 30% and the inhibition at 20 µM is 30 to 50%.

Turning to `CCCCNc1cc(C(=O)OC)cc(S(=N)(=O)NCC2CCOCC2)c1Oc1ccccc1` (centres unmarked) [Compound 13, methyl 3-(butylamino)-4-phenoxy-5-[(tetrahydropyran-4-ylmethylamino)sulfonimidoyl]benzoate], the inhibition at 20 µM fell in the range of 10 to 30%.

As for `CCCCNc1cc(C(=O)OC)cc(S(=N)(=O)N(C)c2ccccc2)c1Oc1ccccc1` (centres unmarked) [Compound 14, methyl 3-(butylamino)-5-[(N-methylanilino)sulfonimidoyl]-4-phenoxy-benzoate], the inhibition at 2 µM was 10 to 30% and the inhibition at 20 µM lay in the range of 10 to 30%.

For `CCCCNc1cc(C(=O)OC)cc(S(=N)(=O)NCc2cncnc2)c1Oc1ccccc1` (centres unmarked) [Compound 15, methyl 3-(butylamino)-4-phenoxy-5-[(pyrimidin-5-ylmethylamino)sulfonimidoyl]benzoate], the inhibition at 2 µM is 30 to 50% and the inhibition at 20 µM fell in the range of 30 to 50%.

For the molecule `CCCCNc1cc(C(=O)OC)cc(S(=N)(=O)Nc2cccnc2)c1Oc1ccccc1` (centres unmarked) [Compound 16, methyl 3-(butylamino)-4-phenoxy-5-[(3-pyridylamino)sulfonimidoyl]benzoate], the inhibition at 2 µM was 30 to 50% and the inhibition at 20 µM lay within 10 to 30%.

Consider `CCCCNc1cc(C(=O)OC)cc(S(=N)(=O)Nc2cccc(OC)c2)c1Oc1ccccc1` (centres unmarked) [Compound 17, methyl 3-(butylamino)-5-[(3-methoxyanilino)sulfonimidoyl]-4-phenoxy-benzoate], for which the inhibition at 2 µM was in the range of 10 to 30% and the inhibition at 20 µM was in the range of 30 to 50%.

Consider `CCCCNc1cc(C(=O)OC)cc(S(=N)(=O)N2CCC(c3ccccc3)CC2)c1Oc1ccccc1` (centres unmarked) [Compound 18, methyl 3-(butylamino)-4-phenoxy-5-[(4-phenyl-1-piperidyl)sulfonimidoyl]benzoate], for which the inhibition at 2 µM fell in the range of 30 to 50% and the inhibition at 20 µM was 10 to 30%.

In the case of `CCCCNc1cc(C(=O)OC)cc(S(=N)(=O)N2CCc3ccccc32)c1Oc1ccccc1` (centres unmarked) [Compound 19, methyl 3-(butylamino)-5-(indolin-1-ylsulfonimidoyl)-4-phenoxy-benzoate], the inhibition at 2 µM lay in the range of 30 to 50% and the inhibition at 20 µM is 10 to 30%.

Take `CCCCNc1cc(C(=O)OC)cc(S(=N)(=O)N2CC3CCC(C2)O3)c1Oc1ccccc1` (centres unmarked) [Compound 20, methyl 3-(butylamino)-5-(8-oxa-3-azabicyclo[3.2.1]octan-3-ylsulfonimidoyl)-4-phenoxy-benzoate]: the inhibition at 20 µM lay within 10 to 30%.

Take `CCCCNc1cc(C(=O)OC)cc(S(=N)(=O)Nc2ccn(C)n2)c1Oc1ccccc1` (centres unmarked) [Compound 21, methyl 3-(butylamino)-5-[[(1-methylpyrazol-3-yl)amino]sulfonimidoyl]-4-phenoxy-benzoate]: the inhibition at 2 µM is 10 to 30% and the inhibition at 20 µM is 30 to 50%.

`CCCCNc1cc(C(=O)OC)cc(S(=N)(=O)Nc2cccc(Cl)c2)c1Oc1ccccc1` (centres unmarked) [Compound 22, methyl 3-(butylamino)-5-[(3-chloroanilino)sulfonimidoyl]-4-phenoxy-benzoate]: the inhibition at 2 µM was in the range of 30 to 50% and the inhibition at 20 µM was 30 to 50%.

With `CCCCNc1cc(C(=O)OC)cc(S(=N)(=O)NCc2cccc(Cl)c2)c1Oc1ccccc1` (centres unmarked) [Compound 23, methyl 3-(butylamino)-5-[[(3-chlorophenyl)methylamino]sulfonimidoyl]-4-phenoxy-benzoate], the inhibition at 2 µM lay in the range of 30 to 50% and the inhibition at 20 µM is 10 to 30%.
